# Measured values from US7998952B2, “Thiolactams and uses thereof” (Millennium Pharmaceuticals, Inc., priority 2008, dated 2011).
# Target: T1, recombinant human PLK1[2-369]T210D (Homo sapiens, UniProt P53350, T210D)
# T1 construct: recombinant human PLK1[2-369]T210D; Smt (SUMO) fusion partner (N, cleaved yes); host or cells: E. coli
# Experiment: PLK1 DELFIA Kinase Assay
# Format: biochemical
# Conditions: 50 μM ATP, 2 μM peptide substrate, 0.3 nM enzyme, 90 minutes at room temperature
# Summary of the method: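 E. coli-expressed human PLK1, cleaved from an Smt fusion after Ni2+ purification, is reacted with or without inhibitor for 90 minutes at room temperature and stopped with EDTA. Product is captured on Neutravidin plates and quantified by europium DELFIA time-resolved fluorescence.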
# T1 sequence (P53350 2-369 T210D): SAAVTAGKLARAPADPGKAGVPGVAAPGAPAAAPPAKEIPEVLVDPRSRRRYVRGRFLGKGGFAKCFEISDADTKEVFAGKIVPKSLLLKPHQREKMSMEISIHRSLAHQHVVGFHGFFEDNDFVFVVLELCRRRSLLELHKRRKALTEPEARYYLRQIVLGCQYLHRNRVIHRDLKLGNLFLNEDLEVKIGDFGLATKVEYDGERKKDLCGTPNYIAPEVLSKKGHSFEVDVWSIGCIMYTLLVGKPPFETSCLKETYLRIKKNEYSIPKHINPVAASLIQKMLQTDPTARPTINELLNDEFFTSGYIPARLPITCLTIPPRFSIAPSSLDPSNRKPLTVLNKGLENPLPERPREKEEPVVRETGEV
row,SMILES,IC50 [nM]
1,"Cc1ncc(CCN(C)C)cc1Nc1ncc2c(n1)-c1ccc(Cl)cc1NC(=S)C2 [Compound I-99, 9-chloro-2-({5-[2-(dimethylamino)-ethyl]-2-methylpyridin-3-yl}amino)-5,7-dihydro-6H-pyrimido[5,4-d][1]benzazepine-6-thione]",< 5
2,"Cc1nc(N2CCOCC2)ccc1Nc1ncc2c(n1)-c1ccc(C(F)(F)F)cc1NC(=S)C2 [Compound I-100, 2-[(2-methyl-6-morpholin-4-ylpyridin-3-yl)amino]-9-(trifluoromethyl)-5,7-dihydro-6H-pyrimido[5,4-d][1]benzazepine-6-thione]",< 5
3,"Cc1nc(CCCN(C)C)ccc1Nc1ncc2c(n1)-c1ccc(C(F)(F)F)cc1NC(=S)C2 [Compound I-101, 2-({6-[3-(dimethylamino)propyl]-2-methylpyridin-3-yl}amino)-9-(trifluoromethyl)-5,7-dihydro-6H-pyrimido[5,4-d][1]benzazepine-6-thione]",5 to 25
4,"CC(C)(C)C(=O)Nc1ccc(Nc2ncc3c(n2)-c2ccc(Cl)cc2NC(=S)C3)cn1 [Compound I-102, N-{5-[(9-chloro-6-thioxo-6,7-dihydro-5H-pyrimido[5,4-d][1]benzazepin-2-yl)amino]pyridin-2-yl}-2,2-dimethylpropanamide]",5 to 25
5,"Cc1ncc(N2CCN(C)CC2)cc1Nc1ncc2c(n1)-c1ccc(Cl)cc1NC(=S)C2 [Compound I-103, 9-chloro-2-{[2-methyl-5-(4-methylpiperazin-1-yl)pyridin-3-yl]amino}-5,7-dihydro-6H-pyrimido[5,4-d][1]benzazepine-6-thione]",< 5
6,"CN(C)CCc1cncc(Nc2ncc3c(n2)-c2ccc(Cl)cc2NC(=S)C3)c1 [Compound I-104, 9-chloro-2-({5-[2-(dimethylamino)ethyl]pyridin-3-yl}amino)-5,7-dihydro-6H-pyrimido[5,4-d][1]benzazepine-6-thione]",< 5
7,"Cc1nc(N(C)C2CCN(C)CC2)ccc1Nc1ncc2c(n1)-c1ccc(Cl)cc1NC(=S)C2 [Compound I-105, 9-chloro-2-({2-methyl-6-[methyl(1-methylpiperidin-4-yl)amino]pyridin-3-yl}amino)-5,7-dihydro-6H-pyrimido[5,4-d][1]benzazepine-6-thione]",< 5
8,"Cc1nc(N2CCCC2)ccc1Nc1ncc2c(n1)-c1ccc(Cl)cc1NC(=S)C2 [Compound I-106, 9-chloro-2-[(2-methyl-6-pyrrolidin-1-ylpyridin-3-yl)amino]-5,7-dihydro-6H-pyrimido[5,4-d][1]benzazepine-6-thione]",< 5
9,"CN1CCN(c2cncc(Nc3ncc4c(n3)-c3ccc(Cl)cc3NC(=S)C4)c2)CC1 [Compound I-107, 9-chloro-2-{[5-(4-methylpiperazin-1-yl)pyridin-3-yl]amino}-5,7-dihydro-6H-pyrimido[5,4-d][1]benzazepine-6-thione]",< 5
10,"Cc1nc(N2CCOCC2)ccc1Nc1ncc2c(n1)-c1ccc(Cl)cc1NC(=S)C2 [Compound I-109, 9-chloro-2-[(2-methyl-6-morpholin-4-ylpyridin-3-yl)amino]-5,7-dihydro-6H-pyrimido[5,4-d][1]benzazepine-6-thione]",< 5
11,"Cc1nc(N2CCCC2)ccc1Nc1ncc2c(n1)-c1ccc(C(F)(F)F)cc1NC(=S)C2 [Compound I-110, 2-[(2-methyl-6-pyrrolidin-1-ylpyridin-3-yl)amino]-9-(trifluoromethyl)-5,7-dihydro-6H-pyrimido[5,4-d][1]benzazepine-6-thione]",5 to 25
12,"Cc1nc(N(C)CCN(C)C)ccc1Nc1ncc2c(n1)-c1ccc(Cl)cc1NC(=S)C2 [Compound I-112, 9-chloro-2-({6-[[2-(dimethylamino)ethyl](methyl)amino]-2-methylpyridin-3-yl}amino)-5,7-dihydro-6H-pyrimido[5,4-d][1]benzazepine-6-thione]",5 to 25
13,"Cc1nc2c(cc1Nc1ncc3c(n1)-c1ccc(C(F)(F)F)cc1NC(=S)C3)C[C@H](N(C)C)CC2 [Compound I-113, 2-{[(6R)-6-(dimethylamino)-2-methyl-5,6,7,8-tetrahydroquinolin-3-yl]amino}-9-(trifluoromethyl)-5,7-dihydro-6H-pyrimido[5,4-d][1]benzazepine-6-thione]",< 5
14,Cc1nc2c(cc1Nc1ncc3c(n1)-c1ccc(C(F)(F)F)cc1NC(=S)C3)C[C@@H](N(C)C)CC2 [Compound I-114],< 5

# Next, values leading:
row,IC50 [nM],SMILES
1,< 5,"Cc1nc2c(cc1Nc1ncc3c(n1)-c1ccc(C(F)(F)F)cc1NC(=S)C3)CCCN2 [Compound I-115, 2-[(2-methyl-5,6,7,8-tetrahydro-1,8-naphthyridin-3-yl)amino]-9-(trifluoromethyl)-5,7-dihydro-6H-pyrimido[5,4-d][1]benzazepine-6-thione]"
2,5 to 25,"Cc1nc(C(=O)NC2CCN(C)CC2)ccc1Nc1ncc2c(n1)-c1ccc(Cl)cc1NC(=S)C2 [Compound I-116, 5-[(9-chloro-6-thioxo-6,7-dihydro-5H-pyrimido[5,4-d][1]benzazepin-2-yl)amino]-6-methyl-N-(1-methylpiperidin-4-yl)pyridine-2-carboxamide]"
3,5 to 25,"Cc1ncc(CCCN(C)C)cc1Nc1ncc2c(n1)-c1cc(C(F)(F)F)ccc1NC(=S)C2 [Compound I-117, 2-({5-[3-(dimethylamino)propyl]-2-methylpyridin-3-yl}amino)-10-(trifluoromethyl)-5,7-dihydro-6H-pyrimido[5,4-d][1]benzazepine-6-thione]"
4,5 to 25,"Cc1nc(C(=O)NCCN(C)C)ccc1Nc1ncc2c(n1)-c1ccc(C(F)(F)F)cc1NC(=S)C2 [Compound I-118, N-[2-(dimethylamino)ethyl]-6-methyl-5-{[6-thioxo-9-(trifluoromethyl)-6,7-dihydro-5H-pyrimido[5,4-d][1]benzazepin-2-yl]amino}pyridine-2-carboxamide]"
5,> 25,"Cc1ncc(CCCN(C)C)cc1Nc1ncc2c(n1)-c1cc(CCCN(C)C)c(Cl)cc1NC(=S)C2 [Compound I-120, 9-chloro-10-[3-(dimethylamino)propyl]-2-({5-[3-(dimethylamino)propyl]-2-methylpyridin-3-yl}amino)-5,7-dihydro-6H-pyrimido[5,4-d][1]benzazepine-6-thione]"
6,5 to 25,"Cc1nc(NC(=O)CN(C)C)ccc1Nc1ncc2c(n1)-c1ccc(C(F)(F)F)cc1NC(=S)C2 [Compound I-121, 2-(dimethylamino)-N-(6-methyl-5-{[6-thioxo-9-(trifluoromethyl)-6,7-dihydro-5H-pyrimido[5,4-d][1]benzazepin-2-yl]amino}pyridin-2-yl)acetamide]"
7,5 to 25,"Cc1nc2c(cc1Nc1ncc3c(n1)-c1ccc(C(F)(F)F)cc1NC(=S)C3)CCC(N(C)C)C2 (stereo not shown) [Compound I-122, 2-{[7-(dimethylamino)-2-methyl-5,6,7,8-tetrahydroquinolin-3-yl]amino}-9-(trifluoromethyl)-5,7-dihydro-6H-pyrimido[5,4-d][1]benzazepine-6-thione]"
8,5 to 25,"Cc1nc(C(=O)NC2CCN(C)CC2)ccc1Nc1ncc2c(n1)-c1ccc(C(F)(F)F)cc1NC(=S)C2 [Compound I-123, 6-methyl-N-(1-methylpiperidin-4-yl)-5-{[6-thioxo-9-(trifluoromethyl)-6,7-dihydro-5H-pyrimido[5,4-d][1]benzazepin-2-yl]amino}pyridine-2-carboxamide]"
